Laboratory results from the NIST ThermoML archive (doi:10.1016/j.jct.2016.02.009).

Assay: molar heat capacity at constant pressure
Details: 101.33 kPa, Crystal 2, Small (less than 1 g) adiabatic calorimetry

CCCCCCCCCCCCCCn1cc[n+](C)c1.O=S(=O)([N-]S(=O)(=O)C(F)(F)F)C(F)(F)F
Details | molar heat capacity at constant pressure [J/K/mol]
4.89 K | 3.21
5 K | 3.43
5.1 K | 3.64
5.39 K | 4.23
5.69 K | 4.88
6 K | 5.63
6.34 K | 6.47
6.73 K | 7.47
7.11 K | 8.54
7.5 K | 9.67
7.9 K | 10.86
8.3 K | 12.12
8.7 K | 13.43
9.11 K | 14.79
9.52 K | 16.21
9.93 K | 17.69
10 K | 17.94
10.45 K | 19.63
11.1 K | 22.1
11.75 K | 24.67
12.39 K | 27.32
13.04 K | 30.06
13.7 K | 32.85
14.36 K | 35.72
15 K | 38.56
15.02 K | 38.63
15.8 K | 42.14
16.7 K | 46.22
17.61 K | 50.37
18.51 K | 54.57
19.42 K | 58.74
20 K | 61.41
20.33 K | 62.84
21.54 K | 68.49
23.07 K | 75.56
24.61 K | 82.47
25 K | 84.18
26.14 K | 89.18
27.68 K | 95.96
29.23 K | 102.6
30 K | 105.9
30.94 K | 110.1
32.82 K | 117.9
34.72 K | 125.4
35 K | 126.4
36.61 K | 132.8
38.5 K | 140.1
40 K | 145.8
40.39 K | 147.2
42.38 K | 154.5
44.49 K | 162.2
45 K | 164.1
46.6 K | 169.8
48.71 K | 177.1
50 K | 181.5
50.83 K | 184.3
52.96 K | 191.2
55.08 K | 198
57.2 K | 204.8
59.33 K | 211.5
60 K | 213.6
61.45 K | 218
63.59 K | 224.5
65.72 K | 230.7
67.86 K | 236.8
70 K | 242.6
70.01 K | 242.5
72.16 K | 248.4
74.3 K | 254.1
76.46 K | 260.1
78.61 K | 266.1
80 K | 269.2
80.77 K | 271.8
81.2 K | 272.4
82.94 K | 276.6
83.19 K | 277.4
85.13 K | 281.8
85.17 K | 281.5
87.16 K | 286.5
89.15 K | 291.4
90 K | 293.7
91.14 K | 296.2
93.13 K | 301
95.13 K | 305.5
97.13 K | 310.1
99.14 K | 314.6
100 K | 316.7
101.15 K | 319.3
103.16 K | 324
105.16 K | 328.1
107.17 K | 332.6
109.18 K | 336.8
110 K | 338.4
111.2 K | 340.6
113.23 K | 345
115.25 K | 349.2
117.27 K | 353.4
119.3 K | 357.4
120 K | 358.8
121.32 K | 361.5
123.35 K | 365.5
124.9 K | 368.4
125.83 K | 370.4
127.42 K | 373.3
128.64 K | 376
129.89 K | 378.2
130 K | 378.6
131.38 K | 381.2
132.35 K | 383
134.13 K | 386.5
134.81 K | 387.8
136.88 K | 391.8
137.28 K | 392.5
139.62 K | 397
139.75 K | 397.2
140 K | 397.8
142.22 K | 402.1
142.37 K | 402.3
144.69 K | 406.6
145.12 K | 407.7
147.16 K | 411.2
147.86 K | 412.6
149.63 K | 415.9
150 K | 416.6
150.61 K | 418
152.1 K | 420.5
153.36 K | 423.1
154.57 K | 425.1
156.12 K | 428.1
157.05 K | 429.7
158.87 K | 433.3
159.52 K | 434.5
160 K | 435.3
161.63 K | 438.6
161.99 K | 439.1
164.38 K | 443.7
164.46 K | 443.6
166.93 K | 448.2
167.13 K | 448.7
169.4 K | 453
169.88 K | 453.9
170 K | 454.1
171.87 K | 457.5
172.63 K | 459.1
174.33 K | 462.3
175.38 K | 464.4
176.79 K | 467
178.12 K | 469.7
179.25 K | 471.5
